Like-named read-outs stand apart in the source and are kept apart here.
Legend:
[1] = Comparison test of solubility of derivatives in water
Method: 20.0 mg cholesterol derivative of (l) prepared in Example 7 was dispersed in 50 mL water, 5 mL was taken out therefrom and added with 1.5 mL water, the resulting mixture was placed in a 20° C. water bath, and shaken vigorously for 30 s every 5 min.
24.2 mg cholesterol derivative of mEG7-OH prepared in Example 8 was dispersed in 50 mL of water, 5 mL was taken out therefrom and added with 5 mL water, the resulting mixture was shaken vigorously for 30 s every 5 min.
111.0 mg the hexadecanol derivative of (1) prepared in Example 7 was dispersed in 25 μL of water and shaken vigorously for 30 s every 5 min.
112.9 mg the hexadecanol derivative of mEG7-OH prepared in Example 8 was dispersed in 50 μL of water and shaken vigorously for 30 s every 5 min.
101.3 mg the menthol derivative of mEG7-OH prepared in Example 8 was dispersed in 50 μL of water and vigorously shaken for 30 s every 5 min. After 30 min, the solution was turbid; another 50 μL of water was added, the resulting mixture was vigorously shaken for 30 s every 5 min.

[2] = Comparison test of dispersibility of cholesterol and cholesterol derivatives in water; type: physicochemical; conditions: 20 mg in 50 mL water, 20° C. water bath, FIG. 7

solubility [1] [mg/100 g H2O]	solubility ([1]; listed as Hexadecanol) [mg/100 g H2O]	solubility ([1]; listed as Menthol) [mg/100 g H2O]	disperse state in water [2]	solubility ([1]; listed as Cholesterol) [mg/100 g H2O]	SMILES
< 1	<1	–	–	–	CCCCCCCCCCCCCCCCO [hexadecanol]
< 100	–	<100	–	–	CC1CCC(C(C)C)C(O)C1 (centres unmarked) [menthol]
–	–	–	white emulsion	–	COCCOCCOCCOCCOCCOCCOCCOC(=O)O[C@H]1CC[C@@]2(C)C(=CC[C@H]3[C@@H]4CC[C@H]([C@H](C)CCCC(C)C)[C@@]4(C)CC[C@@H]32)C1 [cholesterol derivative of mEG7-OH]
< 0.2	–	–	completely insoluble	<0.2	CC(C)CCC[C@@H](C)[C@H]1CC[C@H]2[C@@H]3CC=C4C[C@@H](O)CC[C@]4(C)[C@H]3CC[C@]12C [cholesterol]

Source: patent US10858479B2, “Y-type discrete polyethylene glycol derivative and preparation method thereof” (JenKem Technology Co., Ltd. (Beijing), priority 2015, dated 2020)
